Like-named read-outs stand apart in the source and are kept apart here.
Target: T1, human APJ receptor (Homo sapiens, UniProt P35414)
T1 construct: expressed in transfected cells; host or cells: HEK293
T1 sequence (P35414 1-380): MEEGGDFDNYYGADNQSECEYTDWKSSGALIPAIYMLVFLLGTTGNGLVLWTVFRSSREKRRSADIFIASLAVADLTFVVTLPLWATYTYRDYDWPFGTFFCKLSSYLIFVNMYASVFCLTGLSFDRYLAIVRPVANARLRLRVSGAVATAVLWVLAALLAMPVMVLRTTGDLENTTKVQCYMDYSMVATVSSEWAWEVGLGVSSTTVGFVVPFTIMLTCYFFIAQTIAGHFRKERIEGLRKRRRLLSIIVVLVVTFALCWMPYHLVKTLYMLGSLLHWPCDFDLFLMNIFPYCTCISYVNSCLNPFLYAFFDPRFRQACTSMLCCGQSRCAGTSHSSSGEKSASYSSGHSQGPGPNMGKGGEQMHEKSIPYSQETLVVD
Assay: Intracellular cAMP Accumulation Assay (APJ hcAMP, HTRF)
Type: cell-based
In short: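 Stably transfected HEK293 cells (5,000/well) incubated 30 min at room temperature with serially diluted compound, […] and 2 μM forskolin. cAMP measured by HTRF after 60 min with detection reagents, quantified against a cAMP standard curve; EC50 from variable-slope sigmoidal fit of inhibition of forskolin-stimulated cAMP.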

[1] = human APJ, intracellular cAMP accumulation, read-out: hAPJ cAMP EC50 Potency range
[2] = human APJ, cAMP accumulation, potency range class, read-out: hAPJ cAMP EC50 Potency range

EC50 [1]	EC50 [2]	further results	SMILES
10 to 100 nM			CCCCc1nc(=O)c(C(=O)N2CCC(c3ccccc3)CC2)c(O)n1-c1c(OC)cccc1OC [Example 72, 2-butyl-1-(2,6-dimethoxyphenyl)-6-hydroxy-5-(4-phenylpiperidine-1-carbonyl)-1,4-dihydropyrimidin-4-one]
	0.01 to 10 nM		COc1cccc(OC)c1-n1c(-c2csc(C)n2)nc(=O)c(C(=O)N2CCC(c3c(F)cccc3F)C2)c1O (single isomer, unassigned) [Example 270, 5-[3-(2,6-difluorophenyl)pyrrolidine-1-carbonyl]-1-(2,6-dimethoxyphenyl)-6-hydroxy-2-(2-methyl-1,3-thiazol-4-yl)-1,4-dihydropyrimidin-4-one]
0.01 to 10 nM			CCCCc1nc(=O)c(C(=O)N2CCC(c3ccc(F)cc3)C2)c(O)n1-c1c(OC)cccc1OC (single isomer, unassigned) [Example 79, 2-butyl-1-(2,6-dimethoxyphenyl)-5-[3-(4-fluorophenyl)pyrrolidine-1-carbonyl]-6-hydroxy-1,4-dihydropyrimidin-4-one]
	0.01 to 10 nM		CCCCc1nc(=O)c(C(=O)N2CCN(Cc3cccc(Cl)c3Cl)CC2)c(O)n1-c1c(OC)cccc1OC [Example 355, 2-butyl-5-(4-(2,3-dichlorobenzyl)piperazine-1-carbonyl)-1-(2,6-dimethoxyphenyl)-6-hydroxypyrimidin-4(1H)-one0.011]
	0.01 to 10 nM		CCc1cccc(CC)c1-n1c(-c2nc(C)cs2)nc(=O)c(C(=O)N2CCC(c3ncc(Cl)cc3F)C2)c1O (single isomer, unassigned) [Example 306, 5-[3-(5-chloro-3-fluoropyridin-2-yl)pyrrolidine-1-carbonyl]-1-(2,6-diethylphenyl)-6-hydroxy-2-(4-methyl-1,3-thiazol-2-yl)-1,4-dihydropyrimidin-4-one]
0.01 to 10 nM			CCCCc1nc(=O)c(C(=O)N2CCC(c3ccc(F)cc3)C2)c(O)n1-c1c(OC)cccc1OC (stereo not drawn) [Example 87, 2-butyl-3-(2,6-dimethoxyphenyl)-5-[3-(4-fluorophenyl)pyrrolidine-1-carbonyl]-6-hydroxy-3,4-dihydropyrimidin-4-one]
		EC50: 0.01 to 10 nM	CCCCc1nc(=O)c(C(=O)N2CCC(c3ccccn3)C2)c(O)n1-c1c(OC)cccc1OC (single isomer, unassigned) [Example 68, 2-butyl-1-(2,6-dimethoxyphenyl)-6-hydroxy-5-[3-(pyridin-2-yl)pyrrolidine-1-carbonyl]-1,4-dihydropyrimidin-4-one]
0.01 to 10 nM			COc1cccc(OC)c1-n1c(COC2CC2)nc(=O)c(C(=O)N2CCC(c3cccc(F)c3)C2)c1O (stereo not drawn) [Example 15, 2-(cyclopropoxymethyl)-1-(2,6-dimethoxyphenyl)-5-(3-(3-fluorophenyl)pyrrolidine-1-carbonyl)-6-hydroxypyrimidin-4(1H)-one]
	0.01 to 10 nM		CCc1cccc(CC)c1-n1c(-c2csc(C(C)C)n2)nc(=O)c(C(=O)N2CCC(c3ccc(F)cn3)C2)c1O (single isomer, unassigned) [Example 300, 1-(2,6-diethylphenyl)-5-[3-(5-fluoropyridin-2-yl)pyrrolidine-1-carbonyl]-6-hydroxy-2-[2-(propan-2-yl)-1,3-thiazol-4-yl]-1,4-dihydropyrimidin-4-one]
	10 to 100 nM		CCc1cccc(CC)c1-n1c(-c2ccn(CC(C)C)n2)nc(=O)c(C(=O)N2CC[C@@H](c3ccccc3)C2)c1O [Example 317, 1-(2,6-diethylphenyl)-6-hydroxy-2-[1-(2-methylpropyl)-1H-pyrazol-3-yl]-5-[(3S)-3-phenylpyrrolidine-1-carbonyl]-1,4-dihydropyrimidin-4-one]
0.01 to 10 nM			CC[C@@H](c1cc(F)cc(F)c1)n1c(-c2ccn(C)n2)nc(=O)c(C(=O)N2CCC(c3ncc(F)cc3F)C2)c1O (single isomer, unassigned) [Example 184]
0.01 to 10 nM			CCc1cccc(CC)c1-n1c(COC(C)C)nc(=O)c(C(=O)N2CCC(c3ccccn3)C2)c1O (single isomer, unassigned) [Example 18, 1-(2,6-diethylphenyl)-6-hydroxy-2-(isopropoxymethyl)-5-(3-(pyridin-2-yl)pyrrolidine-1-carbonyl)pyrimidin-4(1H)-one]
